Patent US20250074913A1, “PYRAZOLE DERIVATIVES AS STING AGONISTS” (Hoffmann-La Roche Inc., priority 2022, published 2025)
Where two headings read alike, the source gives them in different places.

Experiments:
human PBMC = assay: hPBMC cytokine release assay (Luminex, IFN-β); format: cell-based; conditions: read-out: Agonist_hPBMC_IFN-β_EC50
Protocol: This is the cytokines concentration detection with Luminex assay for human PBMC supernatant. Human peripheral blood mononuclear cells (PBMC) are treated by compounds with appropriate time. Multiple cytokines are released in the supernatant in response to the compound stimulation. Luminex assay can measure the cytokines concentration in supernatant and the compounds activity on human PBMC can be evaluated.
Frozen PBMC was thawed and cultured in PRMI1640 (GIBCO 11875-093) whole medium with […] Heat inactivated-FBS (HI—FBS), 1% NEAA, […] in CO2 incubator overnight. Cells were centrifuged at 400×g for 5 minutes at 4° C. and the pellet was re-suspended with complete RPMI1640 medium to concentration of 1×10^6 cells/ml in cell culture flask T75 (Thermo Fisher Scientific). Compounds were serially diluted with DMSO and distributed to 96-well flat bottom cell plate (Corning 3599) with Echo555. 90 μL/well PBMC cells were seeded into the plates with Multidrop (Thermo Fisher Scientific). After 24 hours of incubation in CO2 incubator, cells were centrifuged at 400×g for 5 minutes at room temperature, 80 μL supernatant each well was collected for cytokines release test with luminex assay of Human custom ProcartaPlex 5-plex kit (Thermo Fisher Scientific PPX-05). 10 μL supernatant or standards were added to a mixture of color-coded beads, 5 μL Biotinylated detection antibodies specific to the analytes of interest were added and formed an antibody-antigen sandwich. 10 μL Phycoerythrin (PE)-conjugated streptavidin is added to the plate and then read signal of each well on the Luminex 200™. The raw data was analyzed by Millipore Analyst Software and cytokine concentrations were generated accordingly. The EC50 of corresponding cytokine such as interferon-β (IFN-β) was calculated by the 4-parameter sigmoidal concentration response model fitting.

[1] = Single dose pharmacokinetics (SDPK) in female C57BL/6J mice; format: in vivo; conditions: mouse, plasma, 1 mg/kg, iv
Protocol: This is the single dose pharmacokinetics (PK) study in female C57/BL6 mice. The purpose of this study was to determine the pharmacokinetics of selected compounds following a single intravenous bolus injection in female C57BL/6J mice. Briefly, 3 female C57BL/6J mice (available from Shanghai Lingchang Biotechnology Co., Ltd) were treated with a single dose of compound intravenously at 1 mg/kg (IV). Blood samples were collected at 5 min, 15 min, 30 min, 1 h, 2 h, 4 h, 7 h and 24 h post-dose. Blood samples were placed on wet ice until centrifugation to obtain plasma samples. The compound concentration in plasma samples was determined using LC-MS/MS method. The pharmacokinetic parameters were calculated by non-compartmental analysis.

[2] = test system: interferon regulatory factor (IRF) pathway in THP1-Dual™ cells; assay: THP1-Dual reporter gene assay (Agonist_THP1_EC50); format: cell-based; conditions: Homo sapiens, 20-24 hrs compound treatment, Lucia luciferase (IRF) readout
Summary of the method: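 Human THP-1 monocytes with Lucia luciferase under ISG54 minimal promoter plus five ISREs; ~33,000 cells/well with serially diluted compound, final 1% DMSO, 20-24 h at 37 °C. Supernatant Lucia luciferase read by QUANTI-Luc Gold luminescence; viability by CCK-8, A450 after 2 h.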

[3] = female, C57BL/6J, prior art compounds (Table 4)
[4] = 24 hours incubation, IFN-β in supernatant

SMILES | AUC(0-t) [1, 3] | C0 [1, 3] | clearance [1, 3] | EC50 [2] | AUC(0-t) ([1]; female C57BL/6J mice) | C0 ([1]; female C57BL/6J mice) | clearance ([1]; female C57BL/6J mice) | EC50 (human PBMC; prior art compounds (Table 4), IFN-β) | EC50 (human PBMC; [4])
CCn1nc(C)c(O)c1-c1nnc(-c2nc(C(N)=O)cc3c2cnn3C)[nH]1 [AC01, reference compound] | 102 ng·h/mL | 997 ng/mL | 170 mL/min/kg |  |  |  |  | 28 nM | 
CCn1nc(C)c(O)c1-c1n[nH]c(-c2c(F)c(C(N)=O)n3cc(C)ncc23)n1 [Example 4, 8-[3-(2-ethyl-4-hydroxy-5-methyl-pyrazol-3-yl)-1H-1,2,4-triazol-5-yl]-7-fluoro-3-methyl-pyrrolo[1,2-a]pyrazine-6-carboxamide] |  |  |  | 162 nM | 122 ng·h/mL | 1720 ng/mL | 137 mL/min/kg |  | 
CCCn1nc(C)c(O)c1-c1n[nH]c(-n2nc(C(N)=O)c3cc(C)ncc32)n1 [Example 31, 1-[3-(4-hydroxy-5-methyl-2-propyl-pyrazol-3-yl)-1H-1,2,4-triazol-5-yl]-5-methyl-pyrazolo[3,4-c]pyridine-3-carboxamide] |  |  |  | 19 nM | 597 ng·h/mL | 5500 ng/mL | 30 mL/min/kg |  | 32 nM
CCCn1nc(C)c(O)c1-c1nc(-c2cc(C(N)=O)n3cc(C)ncc23)co1 [Example 94, 8-[2-(4-hydroxy-5-methyl-2-propyl-pyrazol-3-yl)oxazol-4-yl]-3-methyl-pyrrolo[1,2-a]pyrazine-6-carboxamide] |  |  |  | 15 nM |  |  |  |  | 6 nM

More lines, in order of falling EC50 [2], values ahead:

AUC(0-t) [1, 3] | C0 [1, 3] | clearance [1, 3] | EC50 [2] | AUC(0-t) ([1]; female C57BL/6J mice) | C0 ([1]; female C57BL/6J mice) | clearance ([1]; female C57BL/6J mice) | SMILES | EC50 (human PBMC; prior art compounds (Table 4), IFN-β) | EC50 (human PBMC; [4])
 |  |  | 11 nM | 151 ng·h/mL | 1600 ng/mL | 114 mL/min/kg | Cc1cc2c(C(N)=O)nn(-c3nc(-c4c(O)c(C)nn4CCc4ccccc4)n[nH]3)c2cn1 [Example 40, 1-[3-[4-hydroxy-5-methyl-2-(2-phenylethyl)pyrazol-3-yl]-1H-1,2,4-triazol-5-yl]-5-methyl-pyrazolo[3,4-c]pyridine-3-carboxamide] |  | 46 nM
 |  |  | 6 nM |  |  |  | CCCn1nc(C)c(O)c1-c1nc(-c2c(F)c(C(N)=O)n3cc(C)ncc23)co1 [Example 93, 7-fluoro-8-[2-(4-hydroxy-5-methyl-2-propyl-pyrazol-3-yl)oxazol-4-yl]-3-methyl-pyrrolo[1,2-a]pyrazine-6-carboxamide] |  | 9 nM
 |  |  | 5 nM | 150 ng·h/mL | 2200 ng/mL | 111 mL/min/kg | CCCn1nc(C)c(O)c1-c1n[nH]c(-c2c(F)c(C(N)=O)n3cc(C)ncc23)n1 [Example 79, 7-fluoro-8-[3-(4-hydroxy-5-methyl-2-propyl-pyrazol-3-yl)-1H-1,2,4-triazol-5-yl]-3-methyl-pyrrolo[1,2-a]pyrazine-6-carboxamide] |  | 22 nM
